pIC50: −log10 of the molar value.
How the values were obtained:
CDK8/19 = assay: NFκB Activity Assay (NFκB luciferase reporter, parental 293 cells); type: cell-based; details: read-out: Inhibition Potency HEK293-NFkB-Luc Assay
[1] = target: ABL1(T315I)-nonphosphorylated (Homo sapiens, UniProt P00519, T315I); assay: KINOMEscan; type: binding; details: 2000 nM
ADCK3 = target: T1, ADCK3 (Homo sapiens, UniProt Q8NI60); assay: KINOMEscan; type: binding; details: 2000 nM
T1 construct: purchased DiscoveRx (KINOMEscan scanMAX panel, service)

AURKB = target: T2, AURKB (Homo sapiens, UniProt Q96GD4); assay: KINOMEscan; type: binding; details: 2000 nM
T2 construct: DNA label (qPCR read-out); purchased KINOMEscan scanMAX panel (DiscoveRx)

CAMK2B = target: T3, CAMK2B (Homo sapiens, UniProt Q13554); assay: KINOMEscan; type: binding; details: 2000 nM
T3 construct: DNA label (qPCR read-out); purchased KINOMEscan (ScanMAX panel service)

EPHB4 = target: T4, EPHB4 (Homo sapiens, UniProt P54760); assay: KINOMEscan; type: binding; details: 2000 nM
T4 construct: purchased DiscoveRx (KINOMEscan scanMAX panel)

FGFR3(G697C) = target: T5, FGFR3(G697C) (Homo sapiens, UniProt P22607, G697C); assay: KINOMEscan; type: binding; details: 2000 nM
T5 construct: purchased DiscoveRx (KINOMEscan scanMAX panel)

PIK4CB = target: T6, PIK4CB (Homo sapiens, UniProt Q9UBF8); assay: KINOMEscan; type: binding; details: 2000 nM
T6 construct: DNA label; purchased DiscoveRx (KINOMEscan scanMAX panel)

PLK3 = target: T7, PLK3 (Homo sapiens, UniProt Q9H4B4); assay: KINOMEscan; type: binding; details: 2000 nM
T7 construct: purchased DiscoveRx (KINOMEscan scanMAX panel)

[2] = Oral PK in female CD-1 mice, solution formulation; details: oral gavage in solution, 30 mg/kg (15u series) or 16/18 mg/kg (15w series)
Mouse PK, intravenous = type: in vivo; details: female FVB mice, i.v. 0.5 mg/kg, mixture
Description: Pharmacokinetics (PK) Assay. To measure mouse pharmacokinetics (PK), thienopyridine derivatives were dissolved in 5% dextrose and administered to female FVB mice at different dosing conditions; blood samples were collected at different time points and compound concentrations in the serum were measured by LC/MS/MS.

Mouse PK, oral 1 mg/kg = type: in vivo; details: female, FVB, serum, mice, oral (gavage) 1 mg/kg
[3] = test system: CRPC cell line 22rv1 xenograft; assay: 22rv1 CRPC xenograft in castrated male nude mice; type: in vivo, mouse; details: 50 mg/kg orally daily
Description: In another in vivo study, CRPC cell line 22rv1 was grown as a xenograft in castrated male nude mice.

[4] = test system: 4T1 murine triple-negative breast cancer; assay: 4T1 TNBC lung metastasis survival after primary tumor removal; type: in vivo, mouse; details: 25 mg/kg oral b.i.d. after removal of primary tumor
MYC-CaP-CR tumors = assay: MYC-CaP-CR subcutaneous tumors in intact FVB male mice; type: in vivo, mouse; details: intact (uncastrated) FVB male mice
[5] = test system: luciferase-expressing MV4-11 cells; assay: MV4-11 leukemia in NSG mice, bioluminescence imaging; type: in vivo, mouse; details: for inhibition of leukemia growth (BLI): 23 days, NSG mice
Description: Assay protocol. For in vivo studies, 7-week-old female NSG mice (Jackson Laboratories) were injected with 2×10^6 luciferase-expressing MV4-11 cells in the tail vein. Following engraftment, BLI was performed on the inoculated mice 5 days after cell inoculation. After BLI, the mice were sorted into two matching cohorts of 10 mice and one cohort of 5 mice. BLI detection was done with IVIS Lumina II Series Hardware for In-Vivo Imaging with optional XFOV lens and Living Image software. The IVIS setting for sorting mice into cohorts was set for high sensitivity: Bin 8, F1.2, 180 sec. Subsequent exposures (week 1-5) were set for increased resolution: Bin 4, F1.2, 120 sec.
Treatment was initiated on day 6 following cell-inoculation and continued for 23 days. Ten mice received Vehicle only (5% carboxylmethyl cellulose) by gavage (200 μl). […] This diet matches the diet used for normal mouse feeding, with the exception of added dye and 15u. The control MV4-11 xenografted mice (Vehicle) developed a vigorous tumor population as detected by BLI (FIG. 10B-10C). […] Survival of the mice post treatment was monitored.

[6] = test system: MDA-MB-468 triple-negative breast cancer (TNBC) cells; assay: MDA-MB-468 long-term treatment in vitro; type: cell-based, Human
[7] = MTD study, oral gavage b.i.d. 14 days, CD-1 mice; type: in vivo, mouse; details: for detrimental effects: 14 days
Description: The highest dose (120 mg/kg b.i.d.) caused about 10% body weight loss in female mice after 7-10 days of treatment but no further deterioration was observed through the rest of the treatment period (FIG. 12A).

[8] = Long-term MTD study, medicated diet, CD-1 mice; type: in vivo, mouse; details: female CD-1 mice, 1000 ppm medicated diet, first week
Description: In another long-term MTD in vivo assay, groups of male and female CD-1 mice were fed regular diet (control) or 15u-medicated diet (500 ppm or 1000 ppm) for 4 or 5 weeks (FIG. 12B). The daily doses of 500 ppm and 1000 ppm groups were estimated to be about 50-100 mg/kg and 100-200 mg/kg, respectively, based on daily diet consumption.

[9] = test system: alkaline phosphatase (ALPase) in bone marrow stromal cell line ST2; details: concentration that enhances ALPase activity to 200% of control; ST2 cells; Saito (2013); cited from earlier work
MV4-11 cells = assay: MV4-11-Luc proliferation assay; details: Homo sapiens, MV4-11, read-out: Inhibition Potency MV4-11-Luc Assay
[10] = Mouse oral PK of 15u/15w mixture at 30 mg/kg; details: female CD1 mice, oral 30 mg/kg of each compound, latest timepoint 8 hrs
[11] = test system: NFκB activation in CDK8/19-deficient cells; assay: NFκB reporter assay in CDK8/19 double-knockout 293 reporter cells; details: CDK8/19 double-knockout reporter cells

T6 sequence (Q9UBF8 whole entry): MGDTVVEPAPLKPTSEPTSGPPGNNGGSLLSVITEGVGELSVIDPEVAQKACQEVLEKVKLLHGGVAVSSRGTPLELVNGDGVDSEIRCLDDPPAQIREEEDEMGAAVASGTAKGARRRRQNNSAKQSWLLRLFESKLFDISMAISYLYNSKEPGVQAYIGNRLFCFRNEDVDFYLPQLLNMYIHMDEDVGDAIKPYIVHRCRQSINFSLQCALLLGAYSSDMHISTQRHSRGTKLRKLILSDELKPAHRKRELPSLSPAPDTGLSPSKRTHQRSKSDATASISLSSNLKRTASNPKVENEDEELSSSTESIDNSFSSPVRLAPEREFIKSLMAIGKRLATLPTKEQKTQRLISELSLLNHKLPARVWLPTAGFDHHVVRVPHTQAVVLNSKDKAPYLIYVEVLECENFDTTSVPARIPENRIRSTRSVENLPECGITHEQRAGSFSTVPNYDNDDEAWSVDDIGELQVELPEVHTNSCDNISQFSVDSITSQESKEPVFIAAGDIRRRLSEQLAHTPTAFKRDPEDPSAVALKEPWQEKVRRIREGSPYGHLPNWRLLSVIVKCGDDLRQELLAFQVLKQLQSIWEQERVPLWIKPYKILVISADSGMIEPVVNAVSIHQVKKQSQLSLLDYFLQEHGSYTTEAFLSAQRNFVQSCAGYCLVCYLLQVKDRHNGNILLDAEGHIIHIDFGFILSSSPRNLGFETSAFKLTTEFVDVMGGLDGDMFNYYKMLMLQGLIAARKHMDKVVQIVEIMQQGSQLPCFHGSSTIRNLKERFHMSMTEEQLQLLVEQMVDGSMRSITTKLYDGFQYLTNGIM
T7 sequence (Q9H4B4 whole entry): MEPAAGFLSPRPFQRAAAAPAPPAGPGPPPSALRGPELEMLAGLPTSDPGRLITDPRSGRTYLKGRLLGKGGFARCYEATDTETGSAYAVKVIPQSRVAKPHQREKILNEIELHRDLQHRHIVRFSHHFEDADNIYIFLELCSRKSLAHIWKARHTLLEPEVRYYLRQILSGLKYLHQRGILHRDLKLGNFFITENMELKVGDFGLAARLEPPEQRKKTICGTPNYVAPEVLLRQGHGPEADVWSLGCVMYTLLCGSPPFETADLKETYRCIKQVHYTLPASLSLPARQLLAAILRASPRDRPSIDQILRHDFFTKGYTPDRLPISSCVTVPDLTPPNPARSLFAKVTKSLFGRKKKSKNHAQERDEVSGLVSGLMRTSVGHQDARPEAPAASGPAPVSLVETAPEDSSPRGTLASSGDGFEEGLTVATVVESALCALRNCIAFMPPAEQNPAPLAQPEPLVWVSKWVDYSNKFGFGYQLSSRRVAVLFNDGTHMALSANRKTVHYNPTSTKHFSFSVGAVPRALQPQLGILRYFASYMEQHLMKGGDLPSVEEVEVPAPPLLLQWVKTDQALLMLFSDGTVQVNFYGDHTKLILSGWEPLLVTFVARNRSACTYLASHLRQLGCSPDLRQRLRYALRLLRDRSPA
T2 sequence (Q96GD4 whole entry): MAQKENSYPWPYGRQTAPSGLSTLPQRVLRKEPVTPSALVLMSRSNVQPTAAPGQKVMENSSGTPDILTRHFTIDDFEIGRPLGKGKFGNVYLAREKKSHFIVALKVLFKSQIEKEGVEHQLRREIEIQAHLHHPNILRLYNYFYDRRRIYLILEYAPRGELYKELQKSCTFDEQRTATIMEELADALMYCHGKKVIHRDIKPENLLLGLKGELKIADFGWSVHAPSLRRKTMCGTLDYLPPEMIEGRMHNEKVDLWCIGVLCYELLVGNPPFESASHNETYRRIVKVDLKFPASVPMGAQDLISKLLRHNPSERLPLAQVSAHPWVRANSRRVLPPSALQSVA
T3 sequence (Q13554 whole entry): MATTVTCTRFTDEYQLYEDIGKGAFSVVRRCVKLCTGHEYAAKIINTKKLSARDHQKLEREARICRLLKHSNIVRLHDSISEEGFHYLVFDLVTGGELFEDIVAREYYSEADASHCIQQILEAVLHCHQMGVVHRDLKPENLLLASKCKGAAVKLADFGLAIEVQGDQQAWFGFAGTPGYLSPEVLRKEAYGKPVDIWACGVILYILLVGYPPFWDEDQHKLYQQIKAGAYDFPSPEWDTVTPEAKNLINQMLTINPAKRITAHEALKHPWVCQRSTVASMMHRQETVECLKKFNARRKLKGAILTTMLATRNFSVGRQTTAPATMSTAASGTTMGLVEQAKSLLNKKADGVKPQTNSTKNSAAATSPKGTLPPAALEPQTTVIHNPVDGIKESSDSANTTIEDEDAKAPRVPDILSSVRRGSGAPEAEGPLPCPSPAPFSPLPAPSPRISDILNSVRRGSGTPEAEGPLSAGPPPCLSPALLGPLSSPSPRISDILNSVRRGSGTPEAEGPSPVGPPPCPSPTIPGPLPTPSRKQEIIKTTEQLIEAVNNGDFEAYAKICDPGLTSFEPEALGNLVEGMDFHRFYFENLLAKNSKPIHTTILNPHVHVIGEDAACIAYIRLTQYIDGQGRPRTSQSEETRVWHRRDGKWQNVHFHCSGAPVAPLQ
T4 sequence (P54760 16-987): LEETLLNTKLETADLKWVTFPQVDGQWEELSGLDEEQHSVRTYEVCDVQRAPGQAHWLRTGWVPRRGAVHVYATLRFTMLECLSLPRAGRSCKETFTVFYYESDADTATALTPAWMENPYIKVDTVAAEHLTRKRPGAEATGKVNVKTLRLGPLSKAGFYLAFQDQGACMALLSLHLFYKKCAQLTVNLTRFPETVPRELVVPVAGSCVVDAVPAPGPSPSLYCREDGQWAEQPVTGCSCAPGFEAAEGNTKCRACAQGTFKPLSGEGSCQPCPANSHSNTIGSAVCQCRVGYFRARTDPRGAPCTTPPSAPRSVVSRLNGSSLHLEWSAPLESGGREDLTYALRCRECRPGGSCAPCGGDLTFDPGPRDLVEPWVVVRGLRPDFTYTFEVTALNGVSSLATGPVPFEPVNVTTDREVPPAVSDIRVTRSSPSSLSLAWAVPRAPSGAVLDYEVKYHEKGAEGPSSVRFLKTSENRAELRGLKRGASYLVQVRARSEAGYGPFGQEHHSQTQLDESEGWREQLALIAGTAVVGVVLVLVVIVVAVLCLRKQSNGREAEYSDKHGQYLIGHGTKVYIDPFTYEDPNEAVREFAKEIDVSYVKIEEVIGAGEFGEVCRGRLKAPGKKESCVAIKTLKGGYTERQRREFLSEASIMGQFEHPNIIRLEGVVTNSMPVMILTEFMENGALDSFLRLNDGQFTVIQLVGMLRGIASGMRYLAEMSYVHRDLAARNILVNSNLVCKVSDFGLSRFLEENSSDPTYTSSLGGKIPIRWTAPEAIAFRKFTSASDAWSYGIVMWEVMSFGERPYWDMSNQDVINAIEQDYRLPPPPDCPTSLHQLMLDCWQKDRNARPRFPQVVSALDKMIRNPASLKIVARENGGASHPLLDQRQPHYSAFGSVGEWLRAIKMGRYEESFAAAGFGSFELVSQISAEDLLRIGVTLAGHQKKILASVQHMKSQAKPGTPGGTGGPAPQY
T1 sequence (Q8NI60 163-647): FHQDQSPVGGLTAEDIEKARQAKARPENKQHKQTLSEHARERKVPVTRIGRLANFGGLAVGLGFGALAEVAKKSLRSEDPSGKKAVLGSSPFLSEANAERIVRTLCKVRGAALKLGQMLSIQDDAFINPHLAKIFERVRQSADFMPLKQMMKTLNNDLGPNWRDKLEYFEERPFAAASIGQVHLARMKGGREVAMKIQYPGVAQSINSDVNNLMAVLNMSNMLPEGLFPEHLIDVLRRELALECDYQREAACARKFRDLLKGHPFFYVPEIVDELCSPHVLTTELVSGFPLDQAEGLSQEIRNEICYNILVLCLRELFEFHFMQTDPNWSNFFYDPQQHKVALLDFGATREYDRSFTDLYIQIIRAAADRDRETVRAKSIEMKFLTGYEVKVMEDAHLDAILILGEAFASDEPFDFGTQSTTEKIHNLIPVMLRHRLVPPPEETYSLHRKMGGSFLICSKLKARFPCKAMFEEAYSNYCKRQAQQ
T5 sequence (P22607 23-806 G697C): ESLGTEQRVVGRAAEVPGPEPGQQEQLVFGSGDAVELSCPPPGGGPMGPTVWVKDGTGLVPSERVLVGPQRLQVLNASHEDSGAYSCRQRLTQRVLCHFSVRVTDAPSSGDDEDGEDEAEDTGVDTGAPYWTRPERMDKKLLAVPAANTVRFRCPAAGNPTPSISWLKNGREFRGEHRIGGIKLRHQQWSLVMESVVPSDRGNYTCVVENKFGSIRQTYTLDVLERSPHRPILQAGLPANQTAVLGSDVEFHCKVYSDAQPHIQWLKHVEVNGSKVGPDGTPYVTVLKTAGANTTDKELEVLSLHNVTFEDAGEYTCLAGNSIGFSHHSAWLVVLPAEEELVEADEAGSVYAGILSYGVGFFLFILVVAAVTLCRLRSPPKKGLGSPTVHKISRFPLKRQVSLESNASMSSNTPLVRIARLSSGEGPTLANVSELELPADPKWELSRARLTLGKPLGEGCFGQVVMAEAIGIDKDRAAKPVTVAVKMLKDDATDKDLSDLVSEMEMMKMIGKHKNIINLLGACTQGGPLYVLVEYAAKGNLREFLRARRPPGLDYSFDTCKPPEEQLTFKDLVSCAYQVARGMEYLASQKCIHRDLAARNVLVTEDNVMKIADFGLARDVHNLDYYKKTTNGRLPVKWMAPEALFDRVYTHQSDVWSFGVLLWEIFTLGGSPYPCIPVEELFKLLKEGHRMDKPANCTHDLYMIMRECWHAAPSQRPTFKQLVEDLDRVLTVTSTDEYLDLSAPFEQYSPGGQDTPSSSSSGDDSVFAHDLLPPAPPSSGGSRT

[2H]C([2H])([2H])N(C(=O)c1ccc(N2CCCN(c3ccnc4sc(C(N)=O)c(N)c34)CC2)cc1)C([2H])([2H])[2H] [15u_D6, 3-amino-4-(4-(4-(bis(methyl-d3)carbamoyl)phenyl)-1,4-diazepan-1-yl)thieno[2,3-b]pyridine-2-carboxamide]
pIC50 (CDK8/19): 8.11
% Ctrl [1]: 85 % Ctrl
% Ctrl (ADCK3): 100 % Ctrl
% Ctrl (AURKB): 90 % Ctrl
% Ctrl (CAMK2B): 87 % Ctrl
% Ctrl (EPHB4): 100 % Ctrl
% Ctrl (FGFR3(G697C)): 100 % Ctrl
% Ctrl (PIK4CB): 33 % Ctrl
% Ctrl (PLK3): 90 % Ctrl
PK (AUC 0-8 h) versus undeuterated parent [2]: slightly improved the PK

CN(C)C(=O)c1ccc(N2CCCN(c3ccnc4sc(C(N)=O)c(N)c34)CC2)cc1 [15u, 3-amino-4-(4-(4-(dimethylcarbamoyl)phenyl)-1,4-diazepan-1-yl)thieno[2,3-b]pyridine-2-carboxamide]
Elimination rate (Mouse PK, intravenous): 4.03 h⁻¹
AUC (Mouse PK, intravenous; mouse, serum, iv): 92.1 ng·h/mL
C0 (Mouse PK, intravenous; mouse, serum, iv): 328 ng/mL
Vd (Mouse PK, intravenous; mouse, serum, iv): 1.52 L/kg
half-life (Mouse PK, intravenous; mouse, serum, iv): 10.2 min
AUC (Mouse PK, oral 1 mg/kg): 79.3 ng·h/mL
half-life (Mouse PK, oral 1 mg/kg): 78 min
bioavailability (Mouse PK, oral 1 mg/kg; read-out: Bioavailability (F %)): 43%
adverse effects and body weight [3]: no apparent adverse effects and no diminution of mouse body weight
xenograft tumor growth [3]: strongly suppressed the tumor growth
mouse survival of the metastatic disease [4]: significantly increased mouse survival
tumor volume and weight (MYC-CaP-CR tumors): modest effect
inhibition of leukemia growth (BLI) ([5]; 30 mg/kg twice daily by gavage): 94%
inhibition of leukemia growth (BLI) ([5]; medicated chow containing 15u at 1 g/kg): 99.7%
survival post treatment ([5]; oral gavage, FIG. 10D): superior survival rates
response upon long-term treatment in vitro [6]: responsive
body weight loss ([7]; female CD-1 mice, 120 mg/kg b.i.d., after 7-10 days of treatment): about 10%
detrimental effects ([7]; female CD-1 mice, doses up to 60 mg/kg b.i.d.): No detrimental effects
detrimental effects ([7]; male CD-1 mice, 60 and 120 mg/kg b.i.d.): No detrimental effects
weight loss [8]: 5-10%
% Ctrl [1]: 100 % Ctrl
% Ctrl (ADCK3): 90 % Ctrl
% Ctrl (AURKB): 91 % Ctrl
% Ctrl (CAMK2B): 92 % Ctrl
% Ctrl (EPHB4): 100 % Ctrl
% Ctrl (FGFR3(G697C)): 95 % Ctrl
% Ctrl (PIK4CB): 65 % Ctrl
% Ctrl (PLK3): 86 % Ctrl
ALP activity Assay EC200 [9]: 31.9 nM
pIC50 (MV4-11 cells): 7.52
average serum concentration at 8 hrs as % of Cmax [10]: 64.4%
effect on NFκB activation in CDK8/19-deficient cells [11]: no effect

Source: patent US11572369B2, “Bicyclic pyridine compositions and methods of using the same for cancer therapy” (UNIVERSITY OF SOUTH CAROLINA, priority 2019, dated 2023)
